Results taken from patent US12396996B2, “Compounds, pharmaceutical compositions, and methods of their use in reversing cancer chemoresistance” (priority 2019, dated 2025).

Legend:
Type in all cases: cell-based, human
HMLE-SNAIL cells = experiment: CD44/CD24 FACS analysis; conditions: 1 μM for two days
Text: The y- and the x-axes represent fluorescence intensity of CD24 and CD44 cell surface markers, respectively. In this cell line, high CD44 and low CD24 expression indicate TIC cell populations. Cells that express CD24 are considered non-TICs.
Cell surface markers can be used to identify mesenchymal, TIC cells. In breast cancer, the presence of CD44 and absence of CD24 markers are indicators of TICs. Specifically, cells expressing high levels of CD44 and no expression of CD24 are considered TICs, whereas cells expressing CD24 are considered non-TICs. HMLE cells display these cell surface markers upon overexpression of SNAIL or TWIST, which turns on the EMT transcriptional program and promotes a mesenchymal TIC state in cancer cells. To determine whether chaetocin treatment alters the mesenchymal phenotype of TICs, these markers were used to track the fate of HMLE-SNAIL cells following chaetocin treatment (1 μM) using fluorescence-activated cell sorting (FACS) analysis. FIGS. 3A-3B show a heat map plot of FACS results under control conditions (FIG. 3A) and following chaetocin treatment (FIG. 3B). The y-axis corresponds to CD24 fluorescence intensity and the x-axis corresponds to CD44 fluorescence intensity.

[1] = tested on: 786-0, A549 and HMLE-TWIST cells; experiment: Order of chaetocin and chemotherapy, caspase-3 cleavage
Description: FIGS. 4D-4E show a set of bar plots and schematics of experiments in which chaetocin (80 nM) was administered for 15 hours either alone, two days before (FIG. 4E) or after a 2 day treatment with a chemotherapeutic drug (FIG. 4D; 300 nM cisplatin or 10 nM Doxorubicin) to 786-0 clear cell renal carcinoma cells, A549 lung cancer cells, and HMLE-TWIST (E-Twist) breast cancer cells. Cell death was assayed with cleaved caspase 3 fluorescent intensity. These experiments were designed to test the prediction of an epigenetic model for chaetocin-mediated reversal of chemotherapy resistance, namely that chaetocin must be added transiently for a short duration (15 hours) 2 days prior to chemotherapy to sensitize the cells to treatment. If the order was reversed (FIG. 4D), there should be no effect. The results of FIGS. 4A-4E indicate that chaetocin primes cancer cells for apoptotic death by chemotherapy through epigenetic reversal of chemotherapy resistance.
In a separate set of experiments, to test the generality of chaetocin in reversing the chemotherapy resistance of mesenchymal, TIC-rich cancers, well-characterized mesenchymal TIC-rich cell lines from ccRCC 786-0 and lung cancer cells (A549) were used along with HMLE-TWIST cells described above. […]

[2] = tested on: patient-derived TMZ-resistant glioblastoma (GBM) cell line; experiment: Spheroid cell confluence, co-treatment with TMZ
Description: FIGS. 13A and 13B depict the response of a patient-derived TMZ-resistant glioblastoma (GBM) cell line to TMZ (Temozolomide). The cells were grown in suspension into spheroids after which they were treated with TMZ (100 uM), chaetocin (50 uM) or both (TMZ 100 uM, chaetocin 50 uM were administered at the same time). Cell confluence, an assay for spheroid size, was measured. The top graph depicts the response of the TMZ-resistant cell line to TMZ (100 uM) alone. Bottom graph depicts the response of the TMZ-resistant cell line to single agent and double agent treatments.
FIG. 14 depicts the response of a patient-derived TMZ-resistant glioblastoma (GBM) cell line to TMZ (Temozolomide). The cells were grown in suspension into spheroids after which they were treated with TMZ (50, 100, 200, 400 μM), chaetocin (50 uM) or both (TMZ at 50, 100, 200, or 400 μM together with chaetocin at 50 uM). […] Cell confluence, an assay for spheroid size, was measured.
A short exposure to chaetocin is sufficient to cause an epigenetic change, reprogramming mesenchymal, TIC-rich cancer cells into an epithelial fate while sensitizing them to chemotherapy. […] Cell confluence, an assay for spheroid size, was measured to determine if cell growth was inhibited (flat curve) or spheroid sizes were reduced (indicator of cell death and spheroid shrinkage). […]

## CN1C(=O)[C@@]23C[C@]4([C@]56C[C@@]78SS[C@](CO)(C(=O)N7[C@H]5Nc5ccccc56)N(C)C8=O)c5ccccc5N[C@@H]4N2C(=O)[C@@]1(CO)SS3 [chaetocin]
HMLE-SNAIL cells
  CD44/CD24 phenotype (TIC to non-TIC): reprograms TICs into a non-TIC phenotype
[1]; 80 nM for 15 hours, 2 days before cisplatin or doxorubicin
  sensitization to chemotherapy (caspase-3 cleavage): sensitizes them to chemotherapeutic killing
[1]; order reversed: chaetocin after chemotherapy
  sensitization to chemotherapy (caspase-3 cleavage): did not produce similar chemotherapeutic killing of cells
[2]; chaetocin 50 uM with TMZ 100 uM added at the same time
  sensitization to TMZ (cell confluence / spheroid size): sensitization of the TMZ-resistant cell line to TMZ treatment
[2]; chaetocin 50 uM with TMZ 50, 100, 200, 400 uM added at the same time
  sensitization to TMZ (cell confluence / spheroid size): sensitizes the cells to TMZ treatment versus single treatment with TMZ or chaetocin
